Patent publication US11717536B2, “Treatment for periodontitis” (THE UNIVERSITY OF MELBOURNE, priority 2017, dated 2023)
“And” between values parts separate entries of the source, which are not always exact repeats. Equal entries are not always repeated. Marks after values point to notes of the source that are not given here.

What was measured:
[1] = system: Fusobacterium nucleatum (ATCC 10953); assay: Six species polymicrobial biofilm in constant-depth film fermenter, species composition: F. nucleatum; type: cell-based
Description: (§1) To model supragingival plaque six representative oral bacterial species, Streptococcus sanguinis (NCTC 7863), Streptococcus mutans Ingbritt, Actinomyces naeslundii (NCTC 10301), Veillonella parvula (ATCC 17745), Lactobacillus casei (NCDO 161) and Fusobacterium nucleatum (ATCC 10953) (Table 5) were cultured as a polymicrobial biofilm on a human enamel substratum in a constant-depth film fermenter (CDFF; Cardiff University, UK). The CDFF was housed in a 37° C. incubator under anaerobic conditions which were maintained by a constant flow of 5% CO2 in N2 at 1 L/h. The CDFF contained 15 removable polytetrafluoroethylene (PTFE) pans on a circular platform that was rotated at a constant speed of three rpm. The biofilms were grown on three enamel blocks (see below) in each PTFE pan using an artificial saliva medium (ASM, 2.5 g/L mucin type II (porcine, gastric, Sigma), 2.0 g/L bacteriological peptone (Oxoid), 2.0 g/L tryptone (Oxoid), 1.0 g/L yeast extract (Oxoid), 0.35 g/L NaCl, 0.2 g/L KCl, 0.2 mg/L vitamin K, 1 mg/L haemin and 0.1 g/L cysteine hydrochloride) at a constant flow rate of 30 mL/h. Prior to inoculation, the CDFF pan surfaces were conditioned for 24 h with ASM at a flow rate of 10 mL/h (McBain et al (2003) J Appl Microbiol. 94(4):655-66). In order to mimic in vivo bacterial growth conditions in the oral cavity with dietary sugar intake and to provide a high cariogenic challenge, a 1% (w/v) sucrose solution in ASM was pumped into the CDFF four times a day at four hourly intervals with a flow rate of 30 mL/h for 10 min.
(§2) Three treatments were applied to the polymicrobial biofilms: 290 ppm fluoride with 220 ppm fluoride as SnF2 and 70 ppm fluoride as NaF (referred to as SnF2), 2% CPP-ACP and 2% CPP-ACP-SnF2. These treatments were compared with the control in which the test solution was replaced with ASM. Each treatment was applied using two 10 min pulses of the test solution in ASM with a flow rate of 30 mL/h. The first pulse started 30 min prior to the first sucrose pulse of the morning and the second started 3 h 30 min after the final sucrose pulse of the day.
(§3) On day 6, 12 and 19 after inoculation four pans were removed aseptically from the CDFF and replaced with blank sterile pans. Enamel blocks from the pans were removed for bacterial enumeration and transverse microradiography.
Planktonic and loosely attached bacterial cells were firstly removed from the enamel blocks by light washing with 100 μL ASM. To harvest the biofilm cells on each block, the surface was scraped with a sterile scraper with 1 mL of ASM. The biofilm bacterial cells were sedimented by centrifugation (10,000 g, 10 min), the supernatant carefully decanted and the cell pellets stored at −80° C. until required for DNA extraction. The enamel blocks were then used for sectioning and microradiography.
For each timepoint, DNA was extracted separately from 8-9 enamel blocks using PowerLyzer® PowerSoil® DNA Isolation Kits (MoBio Laboratories) following the manufacturers “Vacuum Protocol” with a Precellys® bead homogeniser (Bertin Technologies). Samples were quantified using a Qubit™ dsDNA HS assay kit (Life Technologies) before being stored at −80° C.
The Ion Amplicon Library Preparation Fusion Method (Thermo Fisher Scientific), was adapted for amplification of the V4 region of the 16S rRNA gene. […]

[2] = system: Streptococcus sanguinis (NCTC 7863); assay: Six species polymicrobial biofilm in constant-depth film fermenter, species composition: S. sanguinis; type: cell-based
Description: as §1, §2, §3
(§4) Planktonic and loosely attached bacterial cells were firstly removed from the enamel blocks by light washing with 100 μL ASM. […]
(§5) For each timepoint, DNA was extracted separately from 8-9 enamel blocks using PowerLyzer® PowerSoil® DNA Isolation Kits (MoBio Laboratories) following the manufacturers “Vacuum Protocol” with a Precellys® bead homogeniser (Bertin Technologies). Samples were quantified using a Qubit™ dsDNA HS assay kit (Life Technologies) before being stored at −80° C. […]

[3] = system: Veillonella parvula (ATCC 17745); assay: Six species polymicrobial biofilm in constant-depth film fermenter, species composition: V. parvula; type: cell-based; conditions: 19 days; mean ± standard deviation; n = 5-21
Description: as §1
(§6) Three treatments were applied to the polymicrobial biofilms: 290 ppm fluoride with 220 ppm fluoride as SnF2 and 70 ppm fluoride as NaF (referred to as SnF2), 2% CPP-ACP and 2% CPP-ACP-SnF2. […]
as §5

[4] = system: enamel substratum of the polymicrobial biofilm caries model; assay: Enamel subsurface demineralization in the polymicrobial biofilm caries model (transverse microradiography); parameters: species or system human; conditions: for integrated mineral loss ΔZd / lesion depth LD: twice daily 10 min pulses, mean ± SD
Description: as §1, §2, §3
Three hundred and sixty extracted human third molars were obtained under University of Melbourne ethics approval (HREC #1237616) and sterilized by exposure to 4.1 kGy of gamma radiation. Enamel blocks were cut from the teeth with approximately 6×3×3 mm dimensions using a water-cooled diamond blade saw (Minitom, Struers) and polished using a RotoPol/RotoForce lapping instrument with 1200, 2400, 4000 grit lapping papers (Struers) and 3 and 1 μm diamond polishing pastes (Struers). The blocks were positioned in custom made CDFF pans at a depth of 100 μm and sealed in place with yellow sticky wax (Kemdent) and sterilized by exposure to 4.1 kGy of gamma radiation.
Transverse microradiography was carried out essentially as described previously [Shen et al 2011]. […] The lesion depth (μm) was determined as the distance to the point at which the mineral content reaches 95% of the sound enamel value. The integrated mineral loss (IML), represented as ΔZd, was calculated by trapezoidal integration as the area between the sound-enamel densitometric profile and that of the demineralized enamel densitometric profile in vol % min·μm.

[5] = system: Lactobacillus casei (NCDO 161); assay: Six species polymicrobial biofilm in constant-depth film fermenter, species composition: L. casei; type: cell-based; conditions: 19 days; mean ± standard deviation; n = 5-21
Description: as §1, §2, §3, §4, §5

[6] = system: Actinomyces naeslundii (NCTC 10301); assay: Six species polymicrobial biofilm in constant-depth film fermenter, species composition: A. naeslundii; type: cell-based
Description: as §1, §6, §5

[7] = system: Streptococcus mutans Ingbritt; assay: Six species polymicrobial biofilm in constant-depth film fermenter, species composition: S. mutans; type: cell-based; conditions: 19 days; mean ± standard deviation; n = 5-21
Description: as §1, §6, §5

polymicrobial biofilm = assay: Biofilm ion analyses (calcium, phosphorous, tin; ICP-MS)
Description: To model supragingival plaque six representative oral bacterial species, Streptococcus sanguinis (NCTC 7863), Streptococcus mutans Ingbritt, Actinomyces naeslundii (NCTC 10301), Veillonella parvula (ATCC 17745), Lactobacillus casei (NCDO 161) and Fusobacterium nucleatum (ATCC 10953) (Table 5) were cultured as a polymicrobial biofilm on a human enamel substratum in a constant-depth film fermenter (CDFF; Cardiff University, UK). […] The CDFF contained 15 removable polytetrafluoroethylene (PTFE) pans on a circular platform that was rotated at a constant speed of three rpm. […] These treatments were compared with the control in which the test solution was replaced with ASM. […] The first pulse started 30 min prior to the first sucrose pulse of the morning and the second started 3 h 30 min after the final sucrose pulse of the day. Calcium, phosphorous and tin content of polymicrobial biofilm samples were determined by inductively-coupled mass spectrometry essentially as described previously [[…] et al 2005].

[8] = 19 days, mean ± standard deviation, n = 5-21

[F][Sn][F] [SnF2, stannous fluoride, reference compound]
F. nucleatum as a percentage of total bacteria in the biofilm [1, 8]: 0.02 ± 0.01^cd % | change in abundance of F. nucleatum after treatment relative to the control (increase) ([1]; day 19, FIG. 5B): −2% | S. sanguinis as a percentage of total bacteria in the biofilm [2, 8]: 17.47 ± 3.44^a % | change in abundance of S. sanguinis relative to the control (in words) ([2]; twice daily treatment, day 19): significantly increased | V. parvula as a percentage of total bacteria in the biofilm [3]: 6.50 ± 1.48^b % | integrated mineral loss ΔZd ([4]; Day 6): 636.7 ± 129.4 vol % min · μm | lesion depth LD ([4]; Day 6): 17.6 ± 1.2^c μm | integrated mineral loss ΔZd ([4]; Day 12): 1352.1 ± 147.3^bde vol % min · μm | lesion depth LD ([4]; Day 12): 37.1 ± 5.3^bdf μm | integrated mineral loss ΔZd ([4]; Day 19): 2096.3 ± 66.7^ae vol % min · μm | lesion depth LD ([4]; Day 19): 46.1 ± 4.7^be μm | rate of demineralization ([4]; between day 6 and day 19): 112.1 vol % min·μm/day | reduction in rate of demineralization relative to control ([4]; between day 6 and day 19, twice daily exposure): 50.2% and 50% | L. casei as a percentage of total bacteria in the biofilm [5]: 10.67 ± 6.92^cd % | A. naeslundii as a percentage of total bacteria in the biofilm [6, 8]: 5.54 ± 1.74^abc % | change in abundance of A. naeslundii relative to the control (in words) ([6]; twice daily treatment, day 19): significantly reduced | S. mutans as a percentage of total bacteria in the biofilm [7]: 59.82 ± 4.59^a % | increase in calcium in the biofilm relative to the control (polymicrobial biofilm; ICP-MS): two-fold | increase in phosphorous in the biofilm relative to the control (polymicrobial biofilm; ICP-MS): two-fold | peak stannous concentration in the biofilm (polymicrobial biofilm; ICP-MS): 1.0 nmol/mg biofilm wet weight | Sn accumulated in the polymicrobial biofilms, concentration (polymicrobial biofilm; during SnF2 treatment): ≤ 119 ppm
